Data: BigSolDB 2.1

COC(=O)C1=C(C)NC(C)=C(C(=O)OCC(C)C)C1c1ccccc1[N+](=O)[O-] (stereo not given)
solubility (mole fraction) (in acetonitrile, 278.15 K): 0.00826
solubility (mole fraction) (in acetonitrile, 283.15 K): 0.00998
solubility (mole fraction) (in acetonitrile, 288.15 K): 0.0121
solubility (mole fraction) (in acetonitrile, 293.15 K): 0.0145
solubility (mole fraction) (in acetonitrile, 298.15 K): 0.0173
solubility (mole fraction) (in acetonitrile, 303.15 K): 0.0204
solubility (mole fraction) (in acetonitrile, 308.15 K): 0.0241
solubility (mole fraction) (in acetonitrile, 313.15 K): 0.0281
solubility (mole fraction) (in acetonitrile, 318.15 K): 0.0329
solubility (mole fraction) (in ethyl acetate, 278.15 K): 0.016
solubility (mole fraction) (in ethyl acetate, 283.15 K): 0.0185
solubility (mole fraction) (in ethyl acetate, 288.15 K): 0.0214
solubility (mole fraction) (in ethyl acetate, 293.15 K): 0.0248
solubility (mole fraction) (in ethyl acetate, 298.15 K): 0.0286
solubility (mole fraction) (in ethyl acetate, 303.15 K): 0.0324
solubility (mole fraction) (in ethyl acetate, 308.15 K): 0.037
solubility (mole fraction) (in ethyl acetate, 313.15 K): 0.0419
solubility (mole fraction) (in ethyl acetate, 318.15 K): 0.0477
solubility (mole fraction) (in isopropanol, 278.15 K): 0.00483
solubility (mole fraction) (in isopropanol, 283.15 K): 0.00578
solubility (mole fraction) (in isopropanol, 288.15 K): 0.00688
solubility (mole fraction) (in isopropanol, 293.15 K): 0.0081
solubility (mole fraction) (in isopropanol, 298.15 K): 0.00956
solubility (mole fraction) (in isopropanol, 303.15 K): 0.0111
solubility (mole fraction) (in isopropanol, 308.15 K): 0.0129
solubility (mole fraction) (in isopropanol, 313.15 K): 0.015
solubility (mole fraction) (in isopropanol, 318.15 K): 0.0172
solubility (mole fraction) (in n-propanol, 278.15 K): 0.00367
solubility (mole fraction) (in n-propanol, 283.15 K): 0.00448
solubility (mole fraction) (in n-propanol, 288.15 K): 0.00553
solubility (mole fraction) (in n-propanol, 293.15 K): 0.00673
solubility (mole fraction) (in n-propanol, 298.15 K): 0.00811
solubility (mole fraction) (in n-propanol, 303.15 K): 0.0097
solubility (mole fraction) (in n-propanol, 308.15 K): 0.0115
solubility (mole fraction) (in n-propanol, 313.15 K): 0.0136
solubility (mole fraction) (in n-propanol, 318.15 K): 0.0162
solubility (mole fraction) (in water, 278.15 K): 3.79e-06
solubility (mole fraction) (in water, 283.15 K): 5.04e-06
solubility (mole fraction) (in water, 288.15 K): 6.75e-06
solubility (mole fraction) (in water, 293.15 K): 8.67e-06
solubility (mole fraction) (in water, 298.15 K): 1.17e-05
solubility (mole fraction) (in water, 303.15 K): 1.51e-05
solubility (mole fraction) (in water, 308.15 K): 1.94e-05
solubility (mole fraction) (in water, 313.15 K): 2.47e-05
solubility (mole fraction) (in water, 318.15 K): 3.09e-05
